Values quoted from earlier work, collected in US20090041835A1, “METHOD OF INHIBITING LEAKAGE OF DRUG ENCAPSULATED IN LIPOSOMES” (KYOWA HAKKO KOGYO CO., LTD., priority 1999, published 2009).

Settings: LUVs of 190 nm average particle size, pH gradient using ammonium sulfate; 50% mouse serum at 37° C.

Which “leakage of drug out of the LUVs” value does the source give for `O=C(O)c1cn(C2CC2)c2cc(N3CCNCC3)c(F)cc2c1=O` [ciprofloxacin] here?
The value was “rapidly leaked out”.
